From patent US20100310451A1, “ALTERED N-CADHERIN PROCESSING IN TUMOR CELLS BY FURIN AND PROPROTEIN CONVERTASE 5A (PC5A)” (THE ROYAL INSTITUTION FOR THE ADVANCEMENT OF LEARN, priority 2007, published 2010)
The star is where a group is joined. Decanoyl = CCCCCCCCCC(=O)*; CH2Cl = ClC*

Key:
[1] = system: proprotein convertases (PCs); assay: N-cadherin proteolytic processing assay, transfected U251 and U343 glioma cells; format: cell-based, human; conditions: U251 and U343 cells transfected with N-cadherin; dec-cmk in culture medium
Protocol: (§1) To assess N-cadherin proteolytic processing, we devised an assay where N-terminal cleavage products were detected in the conditioned medium of cells using the proN antibody. Cells were transiently transfected with the appropriate construct(s), the conditioned medium was collected 36 h later, concentrated, and total protein concentration was determined using a Lowry assay (Biorad). Conditioned medium (15 μg protein) was run on a 15% gel, and cleavage products detected were as follows: a 17 kDa band corresponded to cleavage at the consensus site, and a 20 kDa band represented cleavage at the second site.

[2] = system: proprotein convertases (PCs); assay: N-cadherin proteolytic processing assay, transfected HeLa cells; format: cell-based; conditions: HeLa cells transfected with N-cadherin +/- FL-PC5A; 50 μM dec-cmk; proN antibody
Protocol: as §1

[3] = system: PC5A; assay: Endogenous PC5A cell surface localization, glioma cells; format: cell-based, human; conditions: U251 and U343 cells; heparin added to the cells
Protocol: (§2) Live-cell staining was carried out by incubating cells plated on coverslips with primary antibody diluted in medium without serum at 4° C. for 1 h. The cells were washed with PBS and fixed in 4% paraformaldehyde. Following washes with PBS, cells were incubated with fluorescent-conjugated secondary antibody diluted in 1% BSA, 0.02% TritonX, PBS, for 40 min at room temperature. Coverslips were then mounted and examined as above. For surface PC5A staining, cells were washed twice with ice-cold PBS, fixed with freshly prepared 3.7% paraformaldehyde for 10 min on ice, washed 3 times with PBS, incubated in 150 mM glycine for 5 min, washed once with PBS, blocked for 30 min in 1% BSA, incubated in primary antibody overnight at 4° C., washed 4 times with PBS, incubated with secondary antibody for 40 min at room temperature, and washed 4 times with PBS. Coverslips were mounted and examined as above.

[4] = system: PC5A; assay: PC5A cell surface localization, FL-PC5A transfected HeLa cells; format: cell-based; conditions: HeLa cells transfected with FL-PC5A; heparin added to culture medium; non-permeabilizing
Protocol: as §2

Substance	N-cadherin cleavage products in conditioned medium [1]	N-cadherin cleavage products in conditioned medium [2]	PC5A detection at the cell surface [3]	PC5A detection on the cell surface [4]
Decanoyl-Arg-Val-Lys-Arg-chloromethylketone (Decanoyl-RVKR-CH2Cl) [dec-cmk]	no cleavage products detected	no cleavage products detected		
heparin			not detected	not detected
